Literature values as cited in US8466198B2, “Compositions comprising creatine salts and methods of use thereof” (priority 2008, dated 2013).

| SMILES | average gain in athletic performance (creatine ingestion, depending on the measured variable) [%] | increase in body mass (first week of loading) | improvement of maximal power/strength (short term supplementation) | improvement of single effort sprint performance (short term supplementation) | improvement of work performed during exercise of maximal effort muscle contractions (short term supplementation) | improvement of work performed during repetitive sprint performance (short term supplementation) |
| --- | --- | --- | --- | --- | --- | --- |
| CN(CC(=O)O)C(=N)N [Creatine] | 10 to 15 | – | – | – | – | – |
| CN(CC(=O)O)C(=N)N.O [creatine monohydrate] | – | 1-2 kilograms | 5-15% | 1-5% | 5-15% | 5-15% |
